Experiment: Transformation into the amino form after incubation in mouse plasma at 37° C. (Experiment 1)
Type: in vitro ADME
Conditions: 10 mg equivalent/ml
Protocol: The lyophilized 7β-[2(Z)-ethoxyimino-2-(5-phosphonoamino-1,2,4-thiadiazol-3-yl)acetamido]-3-[4-(1-methyl-4-pyridinio)-2-thiazolylthio]-3-cephem-4-carboxylate obtained in Working Example 6, was dissolved in mouse plasma to prepare 10 mg equivalent/ml solution. After incubation at 37° C., the transformation rate into 7β-[2(Z)-ethoxyimino-2-(5-amino-1,2,4-thiadiazol-3-yl)acetamido]-3-[4-(1-methyl-4-pyridinio)-2-thiazolylthio]-3-cephem-4-carboxylate (amino form) was measured. The transformation rates in 30 minutes and 1 hour were as follows: […]

CCO/N=C(\C(=O)N[C@@H]1C(=O)N2C(C(=O)[O-])=C(Sc3nc(-c4cc[n+](C)cc4)cs3)CS[C@H]12)c1nsc(NP(=O)(O)O)n1 [Working Example 6, 7β-[2(Z)-Ethoxyimino-2-(5-phosphonoamino-1,2,4-thiadiazol-3-yl)acetamido]-3-[4-(1-methyl-4-pyridinio)-2-thiazolylthio]-3-cephem-4-carboxylate]
transformation rate into amino form (30 minutes): 35%
transformation rate into amino form (1 hour): 62%

Source: US6417175B1, “Phosphonocephem derivatives, process for the preparation of the same, and use thereof” (Takeda Chemical Industries, Ltd., priority 1997, dated 2002)
